The source of these data is patent publication US8962641B2, “Pyrimidine-substituted pyrrolidine derivatives, pharmaceutical compositions and uses thereof” (Boehringer Ingelheim International GmbH, priority 2013, dated 2015).

Each structure is given as a SMILES string.

human ACC2, sequence (O00763 129-2458): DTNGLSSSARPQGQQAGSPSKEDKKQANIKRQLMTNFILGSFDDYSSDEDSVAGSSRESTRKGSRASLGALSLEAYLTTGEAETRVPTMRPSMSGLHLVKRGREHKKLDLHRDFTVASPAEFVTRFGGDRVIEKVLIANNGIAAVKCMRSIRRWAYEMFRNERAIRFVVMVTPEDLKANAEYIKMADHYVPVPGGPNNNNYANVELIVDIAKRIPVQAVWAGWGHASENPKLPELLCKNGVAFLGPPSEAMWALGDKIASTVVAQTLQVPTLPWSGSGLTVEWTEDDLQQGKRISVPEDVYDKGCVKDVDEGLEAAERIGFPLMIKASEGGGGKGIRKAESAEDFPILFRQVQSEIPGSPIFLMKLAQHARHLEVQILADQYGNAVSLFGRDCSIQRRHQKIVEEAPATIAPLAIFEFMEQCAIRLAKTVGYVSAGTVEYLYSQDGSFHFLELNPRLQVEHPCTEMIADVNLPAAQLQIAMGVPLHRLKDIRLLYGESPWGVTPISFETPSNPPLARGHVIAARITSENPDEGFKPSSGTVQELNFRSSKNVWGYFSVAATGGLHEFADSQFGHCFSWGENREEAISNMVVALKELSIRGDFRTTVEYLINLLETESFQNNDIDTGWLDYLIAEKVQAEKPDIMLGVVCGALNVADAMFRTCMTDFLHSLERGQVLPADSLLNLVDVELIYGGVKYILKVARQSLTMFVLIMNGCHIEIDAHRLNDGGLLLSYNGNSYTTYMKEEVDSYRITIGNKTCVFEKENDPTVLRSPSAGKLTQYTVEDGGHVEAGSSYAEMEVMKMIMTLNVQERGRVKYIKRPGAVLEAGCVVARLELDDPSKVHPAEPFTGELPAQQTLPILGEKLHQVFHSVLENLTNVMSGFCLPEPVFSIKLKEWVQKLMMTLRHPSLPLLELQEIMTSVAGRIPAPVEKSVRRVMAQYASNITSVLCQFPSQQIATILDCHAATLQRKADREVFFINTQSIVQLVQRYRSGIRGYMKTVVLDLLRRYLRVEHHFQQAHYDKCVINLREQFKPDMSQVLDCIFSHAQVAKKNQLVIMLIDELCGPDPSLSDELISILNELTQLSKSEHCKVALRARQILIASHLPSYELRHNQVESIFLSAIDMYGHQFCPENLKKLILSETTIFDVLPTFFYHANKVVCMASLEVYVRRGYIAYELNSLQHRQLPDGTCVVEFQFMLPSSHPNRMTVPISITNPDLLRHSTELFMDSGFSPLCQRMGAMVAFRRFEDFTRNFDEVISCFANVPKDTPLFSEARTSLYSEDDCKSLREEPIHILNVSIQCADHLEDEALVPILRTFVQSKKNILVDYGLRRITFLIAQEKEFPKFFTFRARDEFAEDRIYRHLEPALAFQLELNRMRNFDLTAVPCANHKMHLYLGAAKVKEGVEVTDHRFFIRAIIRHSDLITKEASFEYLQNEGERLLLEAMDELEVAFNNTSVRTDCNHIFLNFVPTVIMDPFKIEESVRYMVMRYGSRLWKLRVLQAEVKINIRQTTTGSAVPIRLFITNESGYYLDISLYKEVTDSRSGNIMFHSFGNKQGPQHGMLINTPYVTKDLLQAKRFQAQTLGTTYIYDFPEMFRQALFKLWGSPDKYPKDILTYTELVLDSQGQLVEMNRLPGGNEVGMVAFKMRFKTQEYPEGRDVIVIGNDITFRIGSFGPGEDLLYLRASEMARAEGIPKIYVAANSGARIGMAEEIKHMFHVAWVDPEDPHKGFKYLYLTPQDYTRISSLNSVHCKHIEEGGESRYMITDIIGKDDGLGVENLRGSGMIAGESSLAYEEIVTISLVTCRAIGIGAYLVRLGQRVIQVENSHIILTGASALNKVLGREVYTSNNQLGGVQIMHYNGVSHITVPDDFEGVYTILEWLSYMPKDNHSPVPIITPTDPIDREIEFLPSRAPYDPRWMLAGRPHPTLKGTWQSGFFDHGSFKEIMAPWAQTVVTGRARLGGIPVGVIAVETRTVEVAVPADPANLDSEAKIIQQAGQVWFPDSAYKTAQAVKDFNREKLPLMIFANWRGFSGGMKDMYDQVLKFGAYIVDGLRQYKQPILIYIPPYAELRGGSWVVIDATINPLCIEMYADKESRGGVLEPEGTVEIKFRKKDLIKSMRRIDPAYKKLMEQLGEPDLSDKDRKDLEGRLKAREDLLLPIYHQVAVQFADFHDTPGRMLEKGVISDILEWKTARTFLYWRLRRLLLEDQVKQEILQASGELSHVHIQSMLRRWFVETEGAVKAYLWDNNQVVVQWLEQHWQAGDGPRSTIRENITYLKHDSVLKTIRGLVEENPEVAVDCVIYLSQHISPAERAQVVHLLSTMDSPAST

This assay deals with human ACC2 (Homo sapiens (Human), UniProt O00763). As to the kind of experiment: ACC2 assay (spectrophotometric 384 well assay, NADH-linked kinetic method). The settings on record: hACC2 construct lacking 128 N-terminal amino acids; coupled lactate dehydrogenase/pyruvate kinase reaction, 340 nm, 25° C. It is filed as biochemical. The method, boiled down:
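Baculovirus/insect-cell human ACC2, anion-exchange purified; ADP formation coupled to pyruvate kinase/lactate dehydrogenase, NADH loss followed at 340 nm, 25° C, 15 min. Final 200 μM NADH and acetyl-CoA, 500 uM ATP; vehicle and no-acetyl-CoA wells set 100% and 0%.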
The term IC50 denotes the concentration needed to halve the response being measured. Low values mean higher potency, high ones lower potency. Compound `CC(=O)N[C@@H](C)c1ccc(O[C@@H]2CCN(c3ccnc(OCC(C)C)n3)C2)cc1` [Example 7.17] registered an IC50 of 960 nM.

For `C[C@H](NC(=O)c1cn[nH]c1)c1ccc(OC2CCN(c3ccnc(N(C)CC(F)F)n3)C2)cc1` (stereo partly drawn) [Example 2.15], the 50% inhibitory concentration (IC50) was 70 nM.

The compound `CC(=O)N[C@@H](C)c1ccc(O[C@@H]2CCN(c3nc(N4CCC(C)(O)C4)ncc3Cl)C2)cc1` (stereo partly drawn) [Example 8.256] yielded an IC50 of 303 nM.

In the case of `CC(=O)N[C@@H](C)c1ccc(O[C@@H]2CCN(c3cnc(NC4CCC4)nc3)C2)cc1` [Example 1.1, N—((S)-1-(4-((R)-1-(2-(cyclobutylamino)pyrimidin-5-yl)pyrrolidin-3-yloxy)phenyl)ethyl)acetamide], the IC50 is 489 nM.

Compound `CCN(CC)c1ncnc(N2CC[C@@H](Oc3ccc([C@H](C)NC(C)=O)cc3)C2)c1Cl` [Example 8.104] came in with an IC50 of 59 nM.

`CC(=O)N[C@@H](C)c1ccc(O[C@@H]2CCN(c3ncnc(NCC4CC4)c3Cl)C2)cc1` [Example 8.309]: the 50% inhibitory concentration (IC50) came out at 42 nM.

In turn, `CC(=O)N[C@@H](C)c1ccc(O[C@@H]2CCN(c3ncnc(N(C)CC(C)C)c3F)C2)cc1` [Example 8.268] had a half-maximal inhibitory concentration (IC50) of 198 nM.

The compound `CCCNc1ncnc(N2CC[C@@H](Oc3ccc([C@H](C)NC(=O)c4sc(NC(=O)CC)nc4C)cc3)C2)c1F` [Example 8.318] showed an IC50 of 703 nM.

Regarding `CC(=O)N[C@@H](C)c1ccc(O[C@@H]2CCN(c3ccnc(N(C)C4CCCOC4)n3)C2)cc1` (stereo partly drawn) [Example 8.180], the concentration for half-maximal inhibition (IC50) worked out at 278 nM.

The compound `CC(=O)N[C@@H](C)c1ccc(O[C@@H]2CCN(c3nc(N4CCOCC4)ncc3Cl)C2)cc1` [Example 8.96] yielded an IC50 of 265 nM.

`CC(=O)N[C@@H](C)c1ccc(O[C@@H]2CCN(c3ncc(C4CC4)cn3)C2)cc1` [Example 6.4] displayed an IC50 of 1910 nM.

In turn, `CCC(=O)Nc1nc(C)c(C(=O)N[C@@H](C)c2ccc(O[C@@H]3CCN(c4ncnc(OCC(C)(C)O)c4Cl)C3)cc2)s1` [Example 7.66] returned an IC50 of 723 nM.

`CC(=O)N[C@@H](C)c1ccc(O[C@@H]2CCN(c3nc(N4CCOCC4C)ncc3Cl)C2)cc1` (stereo partly drawn) [Example 8.210] came in with an IC50 of 714 nM.

As for `CC(=O)N[C@@H](C)c1ccc(O[C@@H]2CCN(c3nc(N4CCC(C)C4)ncc3F)C2)cc1` (stereo partly drawn) [Example 8.70], the IC50 was 59 nM.

`CC(=O)N[C@@H](C)c1ccc(O[C@@H]2CCN(c3nc(N(C)C[C@@H]4CCCO4)ncc3Cl)C2)cc1` [Example 8.258] came in with an IC50 of 105 nM.

`CC(=O)N[C@@H](C)c1ccc(O[C@@H]2CCN(c3cc(N4CCOCC4C)ncn3)C2)cc1` (stereo partly drawn) [Example 8.163] yielded an IC50 of 469 nM.

Turning to `CC(=O)N[C@@H](C)c1ccc(O[C@@H]2CCN(c3ccnc(N4CC[C@H](F)C4)n3)C2)cc1` [Example 8.230], the IC50 was 485 nM.

Consider `CCN(C)c1ncc(Br)c(N2CC[C@@H](Oc3ccc([C@H](C)NC(C)=O)cc3)C2)n1` [Example 8.57], for which the IC50 stood at 1000 nM.

In the case of `CC(=O)N[C@@H](C)c1ccc(O[C@@H]2CCN(c3nc(N4CCC(C)(O)C4)ncc3F)C2)cc1` (stereo partly drawn) [Example 8.156], the IC50 was 153 nM.

In turn, `CC(=O)N[C@@H](C)c1ccc(O[C@@H]2CCN(c3nc(N(C)CCC(F)(F)F)ncc3Cl)C2)cc1` [Example 8.247] had an IC50 of 110 nM.

`CC(=O)N[C@@H](C)c1ccc(O[C@@H]2CCN(c3nc(N4CC(F)(F)C(F)(F)C4)ncc3Cl)C2)cc1` [Example 8.222] came in with an IC50 of 150 nM.

Take `CC(=O)N[C@@H](C)c1ccc(O[C@@H]2CCN(c3nc(N(C)CC(F)F)ncc3F)C2)cc1` [Example 8.27]: the IC50 stood at 65 nM.

Regarding `C[C@H](NC(=O)C1CC1)c1ccc(OC2CCN(c3ccnc(N4CCOCC4)n3)C2)cc1` (stereo partly drawn) [Example 2.2], half-maximal inhibition (IC50) required 359 nM.

Regarding `CCCN(CCC#N)c1nccc(N2CC[C@@H](Oc3ccc([C@H](C)NC(C)=O)cc3)C2)n1` [Example 8.109], half-maximal inhibition (IC50) required 245 nM.

With `CC(=O)N[C@@H](C)c1ccc(O[C@@H]2CCN(c3ncnc(N4CCC5(CC5)C4)c3Cl)C2)cc1` [Example 8.113], the IC50 is 40 nM.

For the compound `CC(=O)N[C@@H](C)c1ccc(O[C@@H]2CCN(c3nc(N(C)CC(C)O)ncc3Cl)C2)cc1` (stereo partly drawn) [Example 8.185], half-maximal inhibition (IC50) was put at 753 nM.

Turning to `CC(=O)N[C@@H](C)c1ccc(O[C@@H]2CCN(c3nc(N4CC[C@H](F)C4)ncc3Cl)C2)cc1` [Example 8.241], the IC50 came out at 594 nM.

In turn, `CC(=O)N[C@@H](C)c1ccc(O[C@@H]2CCN(c3nc(OCC(F)F)ncc3F)C2)cc1` [Example 7.15] showed an IC50 of 828 nM.

Turning to `CCC(=O)Nc1nc(C)c(C(=O)N[C@@H](C)c2ccc(O[C@@H]3CCN(c4ncc(OCC5CC5(F)F)cn4)C3)cc2)s1` (stereo partly drawn) [Example 1.4], the IC50 was found to be 101 nM.

Consider `CC(=O)N[C@@H](C)c1ccc(O[C@@H]2CCN(c3ccnc(N4CCSCC4)n3)C2)cc1` [Example 8.91], for which the half-inhibitory concentration (IC50) was determined as 105 nM.

As to `CC(=O)N[C@@H](C)c1ccc(O[C@@H]2CCN(c3nc(N(C)CC(C)O)ncc3F)C2)cc1` (stereo partly drawn) [Example 8.239], the IC50 was found to be 487 nM.

In turn, `CC(=O)N[C@@H](C)c1ccc(O[C@@H]2CCN(c3ncnc(N4CCC[C@@H]4C)c3F)C2)cc1` [Example 8.284] showed an IC50 of 240 nM.

On to `COC[C@@H]1CCN(c2ncc(Cl)c(N3CC[C@@H](Oc4ccc([C@H](C)NC(C)=O)cc4)C3)n2)C1` [Example 8.188], for which the midpoint of inhibition, the IC50, lay at 118 nM.

With `CC(=O)N[C@@H](C)c1ccc(O[C@@H]2CCN(c3nc(N(C)CC(F)(F)F)ncc3F)C2)cc1` [Example 8.30], it took 184 nM to reach half-maximal inhibition (IC50).

`CC(=O)N[C@@H](C)c1ccc(O[C@@H]2CCN(c3nc(N(C)CCC(F)(F)F)ncc3F)C2)cc1` [Example 8.158]: the IC50 was 56 nM.

In turn, `CC(=O)N[C@@H](C)c1ccc(O[C@@H]2CCN(c3ncnc(NCC4CC4)c3F)C2)cc1` [Example 8.121] registered an IC50 of 169 nM.

The compound `CC(=O)N[C@@H](C)c1ccc(O[C@@H]2CCN(c3ncc(OCC4CC4(F)F)cn3)C2)cc1` (stereo partly drawn) [Example 6.8] had an IC50 of 163 nM.

`CC(=O)Nc1nc(C)c(C(=O)N[C@@H](C)c2ccc(OC3CCN(c4ccnc(N5CCOCC5)n4)C3)cc2)s1` (stereo partly drawn) [Example 2.3]: the midpoint of inhibition, the IC50, lay at 547 nM.

For the compound `CCC(=O)Nc1nc(C)c(C(=O)N[C@@H](C)c2ccc(O[C@@H]3CCN(c4ncnc(NCC(F)F)c4OC)C3)cc2)s1` [Example 8.321], the IC50 was 830 nM.

For `[2H]C([2H])([2H])N(c1ncc(F)c(N2CC[C@@H](Oc3ccc([C@H](C)NC(C)=O)cc3)C2)n1)C([2H])([2H])[2H]` [Example 8.65], the IC50 is 80 nM.

In turn, `CC(=O)N[C@@H](C)c1ccc(O[C@@H]2CCN(c3ncnc(OCC(C)(F)F)c3F)C2)cc1` [Example 7.33] gave an IC50 of 86 nM.

In turn, `CC(=O)N[C@@H](C)c1ccc(O[C@@H]2CCN(c3ncnc(N4CC[C@@H](F)C4)c3F)C2)cc1` [Example 8.162] returned a concentration for half-maximal inhibition (IC50) of 476 nM.

With `CC(=O)N[C@@H](C)c1ccc(O[C@@H]2CCN(c3ncnc(C4CC4)c3F)C2)cc1` [Example 9.5], the IC50 came to 1010 nM.

`CC(=O)N[C@@H](C)c1ccc(O[C@@H]2CCN(c3ccnc(N4CCOC(C)C4)n3)C2)cc1` (stereo partly drawn) [Example 8.84] showed an IC50 of 212 nM.

`CC(=O)N[C@@H](C)c1ccc(O[C@@H]2CCN(c3nc(N4CCCC4C)ncc3F)C2)cc1` (stereo partly drawn) [Example 8.254] had an IC50 of 60 nM.

On to `CC(=O)N[C@@H](C)c1ccc(O[C@@H]2CCN(c3nc(N4CCCC4)ncc3Cl)C2)cc1` [Example 8.50], for which the midpoint of inhibition, the IC50, lay at 157 nM.

`CC(=O)N[C@@H](C)c1ccc(O[C@@H]2CCN(c3nc(N4CC(F)(F)C4)ncc3Cl)C2)cc1` [Example 8.289] came in with a half-maximal inhibitory concentration (IC50) of 484 nM.

Turning to `CC(=O)N[C@@H](C)c1ccc(O[C@@H]2CCN(c3ncc(C4CCC4)cn3)C2)cc1` [Example 6.17], half-maximal inhibition (IC50) was put at 2360 nM.

For the compound `CCN(CCO)c1nccc(N2CC[C@@H](Oc3ccc([C@H](C)NC(C)=O)cc3)C2)n1` [Example 8.263], the 50% inhibitory concentration (IC50) was 698 nM.

Regarding `COc1c(OCC(F)F)ncnc1N1CC[C@@H](Oc2ccc([C@H](C)NC(C)=O)cc2)C1` [Example 7.54], the midpoint of inhibition, the IC50, lay at 162 nM.

`CC(=O)N[C@@H](C)c1ccc(O[C@@H]2CCN(c3ncc(OCC4CC4)cn3)C2)cc1` [Example 6.7] displayed an IC50 of 1080 nM.

As to `CC(=O)N[C@@H](C)c1ccc(O[C@@H]2CCN(c3nc(N(C)CC4CCOC4)ncc3Br)C2)cc1` (stereo partly drawn) [Example 8.61], the IC50 was 245 nM.

Compound `CC(=O)N[C@@H](C)c1ccc(O[C@@H]2CCN(c3ncnc(C4CC4)c3Cl)C2)cc1` [Example 9.2] came in with a half-inhibitory concentration (IC50) of 987 nM.

Regarding `CCN(CC(F)(F)F)c1nccc(N2CC[C@@H](Oc3ccc([C@H](C)NC(C)=O)cc3)C2)n1` [Example 8.79], half-maximal inhibition (IC50) was put at 37 nM.

Turning to `CC(=O)N[C@@H](C)c1ccc(O[C@@H]2CCN(c3nc(N4CCCC4)ncc3Br)C2)cc1` [Example 8.59], the midpoint of inhibition, the IC50, lay at 425 nM.

In the case of `CC(=O)N[C@@H](C)c1ccc(O[C@@H]2CCN(c3cc(OCC(F)(F)F)ncn3)C2)cc1` [Example 7.9], the IC50 worked out at 879 nM.

With `COC(=O)N[C@@H](C)c1ccc(OC2CCN(c3ncnc(OCC4CC4)c3F)C2)cc1` (stereo partly drawn) [Example 4.5], the IC50 came out at 85 nM.

`CCN(CC)c1ncnc(N2CC[C@@H](Oc3ccc([C@H](C)NC(C)=O)cc3)C2)c1F` [Example 8.95] yielded an IC50 of 79 nM.

`C[C@H](NC(=O)c1ccns1)c1ccc(OC2CCN(c3ccnc(N4CCOCC4)n3)C2)cc1` (stereo partly drawn) [Example 2.5] yielded an IC50 of 535 nM.

`CC(=O)N[C@@H](C)c1ccc(OC2CCN(c3cnc(OCC4CC4)nc3)C2)cc1` (stereo partly drawn) [Example 1.3]: the 50% inhibitory concentration (IC50) is 964 nM.

In turn, `CC(=O)N[C@@H](C)c1ccc(O[C@@H]2CCN(c3ncnc(OC4CCOCC4)c3F)C2)cc1` [Example 7.37] displayed an IC50 of 250 nM.

With `C[C@H](NC(=O)C1CC1)c1ccc(O[C@@H]2CCN(c3nc(N4CCOCC4)ncc3F)C2)cc1` [Example 10.5], inhibition was half-maximal at 295 nM (IC50).

Turning to `CC(=O)N[C@@H](C)c1ccc(O[C@@H]2CCN(c3ccnc(N(C)CC(C)C)n3)C2)cc1` [Example 8.171], it took 175 nM to reach half-maximal inhibition (IC50).
